From patent US6943191B1, “Disubstituted lavendustin A analogs and pharmaceutical composition comprising the analogs” (The United States of America as represented by the …, priority 1998, dated 2005)
Read-outs that look alike come from different tables or passages of the source.

Tests used:
[1] = biological target: T1, p210^bcr-abl (Homo sapiens, UniProt P00519); test: Inhibition of in vitro auto-phosphorylation of p210^bcr-abl, immune-complex kinase assay; assay type: biochemical; details: immune complex kinase assay, 3 experiments, read-out: Enzyme Assays IC50 (μM) p210bcl-abl in vitro phosphorylation
T1 construct: immune complexes containing ^32P-labeled p210^bcr-abl were collected on protein Sepharose beads; BCR (N-terminal part of the breakpoint cluster region protein, natural fusion partner); endogenous in cells; host or cells: K562 cells (lysate, immunoprecipitated on Protein A-Sepharose); the other entry of the earlier key: BCR (P11274, Breakpoint cluster region protein)
Procedure, shortened: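 p210^bcr-abl immunoprecipitated from K562 cell lysates, then incubated with compounds in 20 mM PIPES (pH 7.0)–20 mM MnCl2. Autophosphorylation started with […], 20 min at 30 °C, read by 4-20% SDS-PAGE and autoradiography.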

[2] = system: MDA-MB-231; test: Hollow fiber assay in mice, MDA-MB-231; assay type: in vivo, human; details: QD X 4, Day 4; for % T/C MDA-MB-231 IP: IP fibers; for % T/C MDA-MB-231 SC: SC fibers
Method: (§1) Compounds satisfying Formulas 1 and 2 also have been tested for in vivo activity in the hollow fiber assay. See Example 12 below for the procedure used for the in vivo tests. Each compound tested was tested against a minimum of 12 human cancer cell lines. Data is reported as % T/C (i.e., the […]) for each of the 2 compound doses against each of the cell lines with separate values calculated for the intraperitoneal and subcutaneous samples, with a target value for % T/C being about 50 or less.
(§2) Compounds were selected for further in vivo testing in standard subcutaneous xenograft models on the basis of several hollow fiber assay criteria. These criteria include: (1) a % T/C of 50 or less in 10 of the 48 possible test combinations (12 cell lines×2 sites×2 compound doses); (2) activity at a distance (intrapentoneal drug/subcutaneous culture) in a minimum of 4 of the 24 possible combinations; and/or (3) a net cell kill of 1 or more cell lines in either implant site. To simplify evaluation, a point system has been adopted which allows rapid assessment of a compound's activity. A value of 2 is assigned for each compound dose which results in a 50% or greater reduction in viable cell mass. The intraperitoneal and subcutaneous samples were scored separately so that criteria (1) and (2) could be evaluated. Compounds with a combined IP+SC score≧20, an SC score≧8, or a net cell kill of one or more cell lines were referred for xenograft testing. These criteria have been statistically validated by comparing the activity outcomes of greater than 80 randomly selected compounds in the hollow fiber assay and in the xenograft testing.
(§3) This example describes the method used for in vivo testing of mice. Human cancer cells were cultivated in polyvinylidene fluoride (PVDF) hollow fibers. A sample of each cancer cell line was implanted intraperitoneally and subcutaneously in mice. Each mouse received a total of 6 fibers, 3 intraperitoneally and 3 subcutaneously, representing 3 distinct cancer cell lines. Three mice were treated with compounds made according to the present invention at each of two test doses intraperitoneally using a QD×4 treatment schedule. […] Anticancer effects were assessed by determining viable cell mass for each of the coil line using a formazan dye (MTT) conversion assay. From this, the % TIC was calculated using the average optical density of the compound-treated samples divided by the average optical density of the vehicle controls. In addition, the net increase in cell mass was determined for each sample as samples of fiber cultures were assessed for viable cell mass on the day of implantation into mice. This allowed cytostatic and cytocidal capacities of these compounds to be assessed.

[3] = system: SF-295; test: Hollow fiber assay in mice, SF-295; assay type: in vivo, human; details: QD X 4, Day 4; for % T/C SF-295 IP: IP fibers; for % T/C SF-295 SC: SC fibers
Method: as §1, §2, §3

T1 sequence (P00519 with tags, fused parts or gaps): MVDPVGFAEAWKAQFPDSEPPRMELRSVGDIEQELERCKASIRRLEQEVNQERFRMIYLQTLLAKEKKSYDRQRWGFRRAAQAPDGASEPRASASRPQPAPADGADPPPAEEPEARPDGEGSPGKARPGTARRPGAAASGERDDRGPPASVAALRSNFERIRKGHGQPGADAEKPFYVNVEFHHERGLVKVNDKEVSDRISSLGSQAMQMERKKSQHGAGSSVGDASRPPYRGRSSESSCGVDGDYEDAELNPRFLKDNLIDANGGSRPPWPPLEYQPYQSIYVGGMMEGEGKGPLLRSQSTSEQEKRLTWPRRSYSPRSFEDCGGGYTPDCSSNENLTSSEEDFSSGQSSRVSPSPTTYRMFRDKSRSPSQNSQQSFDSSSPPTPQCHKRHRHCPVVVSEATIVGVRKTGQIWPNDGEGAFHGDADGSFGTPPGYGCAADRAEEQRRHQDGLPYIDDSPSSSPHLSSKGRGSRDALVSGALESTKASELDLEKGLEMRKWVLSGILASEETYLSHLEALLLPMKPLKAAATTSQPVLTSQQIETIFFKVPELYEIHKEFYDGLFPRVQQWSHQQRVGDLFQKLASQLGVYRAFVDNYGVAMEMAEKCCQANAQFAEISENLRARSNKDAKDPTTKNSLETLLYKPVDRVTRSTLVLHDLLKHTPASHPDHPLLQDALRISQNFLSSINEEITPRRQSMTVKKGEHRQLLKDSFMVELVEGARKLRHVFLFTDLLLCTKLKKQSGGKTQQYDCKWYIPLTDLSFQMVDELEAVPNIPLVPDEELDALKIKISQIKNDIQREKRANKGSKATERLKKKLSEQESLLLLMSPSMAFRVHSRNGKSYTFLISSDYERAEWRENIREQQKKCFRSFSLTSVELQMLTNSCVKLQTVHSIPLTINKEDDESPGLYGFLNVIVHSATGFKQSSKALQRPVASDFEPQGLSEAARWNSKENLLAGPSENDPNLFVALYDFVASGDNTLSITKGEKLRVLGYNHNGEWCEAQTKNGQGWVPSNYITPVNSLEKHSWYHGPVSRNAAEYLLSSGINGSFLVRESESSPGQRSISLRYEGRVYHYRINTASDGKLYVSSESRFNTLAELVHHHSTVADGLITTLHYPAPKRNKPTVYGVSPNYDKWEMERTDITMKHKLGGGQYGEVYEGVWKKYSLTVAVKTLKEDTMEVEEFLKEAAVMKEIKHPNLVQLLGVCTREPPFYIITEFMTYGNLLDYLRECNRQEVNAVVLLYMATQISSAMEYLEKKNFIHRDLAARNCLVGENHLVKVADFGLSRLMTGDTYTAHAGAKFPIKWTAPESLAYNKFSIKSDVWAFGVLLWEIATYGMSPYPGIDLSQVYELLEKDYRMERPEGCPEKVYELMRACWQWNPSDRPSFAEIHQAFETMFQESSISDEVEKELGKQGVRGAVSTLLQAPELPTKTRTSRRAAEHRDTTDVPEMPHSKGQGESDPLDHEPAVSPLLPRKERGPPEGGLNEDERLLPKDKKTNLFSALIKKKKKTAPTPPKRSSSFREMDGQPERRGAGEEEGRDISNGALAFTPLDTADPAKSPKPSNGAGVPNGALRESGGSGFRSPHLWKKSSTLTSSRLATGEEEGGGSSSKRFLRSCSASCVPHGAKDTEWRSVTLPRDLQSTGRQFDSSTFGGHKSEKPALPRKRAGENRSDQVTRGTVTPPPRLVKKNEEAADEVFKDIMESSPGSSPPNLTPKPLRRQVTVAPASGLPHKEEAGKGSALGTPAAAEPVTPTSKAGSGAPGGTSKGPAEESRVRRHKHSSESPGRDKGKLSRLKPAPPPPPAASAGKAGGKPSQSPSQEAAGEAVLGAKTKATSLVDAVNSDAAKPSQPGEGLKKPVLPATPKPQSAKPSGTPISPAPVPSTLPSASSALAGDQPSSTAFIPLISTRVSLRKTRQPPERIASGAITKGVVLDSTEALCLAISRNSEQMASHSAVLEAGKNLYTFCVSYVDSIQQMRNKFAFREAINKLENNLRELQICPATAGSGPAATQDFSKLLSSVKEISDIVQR

IC50 ([1]; Table 10, mean ± S.E.)	IC50 ([1]; Table 8, mean+S.E.)	Structure (SMILES)	further results
4.42 ± 0.24 µM	–	COC(=O)c1ccc(CCc2cc(O)c(Br)cc2O)cc1	–
3.52 ± 0.16 µM	–	COC(=O)c1ccc(CCC2=CC(=O)C(Br)=CC2=O)cc1	–
4.19 ± 0.07 µM	–	CC(C)OC(=O)c1ccc(CCC2=CC(=O)C(Br)=CC2=O)cc1	–
–	7.72 µM	CC(C)(C)OC(=O)c1ccc(NCc2cc(O)ccc2O)cc1 [COOC(CH3)3 / H / H, 4′-t-butylbenzoate-1′-N-2,5-dihydroxybenzylamine]	–
–	36.6 µM	O=C(OCc1ccccc1)c1ccc(NCc2cc(O)ccc2O)cc1 [COOCH2Ph / H / H]	–
19.9 ± 9.94 µM	–	COC(=O)c1ccc(C=Cc2cc(O)ccc2O)cc1 [COOCH3 / 2,5-dihydoxyphenyl / CH═CH / H]	–
5.47 ± 0.22 µM	–	COC(=O)c1ccc(/C=C/C2=CC(=O)C=CC2=O)cc1 [COOCH3 / 2,5-quinoyl / CH═CH / H]	–
5.26 ± 2.09 µM	–	CC(C)OC(=O)c1ccc(CCC2=CC(=O)C=CC2=O)cc1 [COOCH(CH3)2 / 2,5-quinoyl / CH2—CH2 / H]	–
–	1.22 µM	CC(C)OC(=O)c1ccc(NCc2cc(O)ccc2O)cc1Cl [COOCH(CH3)2 / Cl / H, 5′-chloro-4′-isopropylbenzoate-1′-N-2,5-dihydroxybenzylamine]	–
–	4.45 µM	CC(C)OC(=O)c1ccc(NCc2cc(O)ccc2O)cc1 [COOCH(CH3)2 / H / H]	–
–	–	CC(C)C(OC(=O)c1ccc(NCC2=CC(=O)C=CC2=O)cc1)C(C)C [COOCH[CH(CH3)2]2 / H / 2,5-quinoyl]	IC50 ([1]; Table 9, mean ± S.E.): 34 ± 9.02 µM
–	11.1 µM	CC(C)C(OC(=O)c1ccc(NCc2cc(O)ccc2O)cc1)C(C)C [COOCH[CH(CH3)2]2 / H / H]	–
–	13.6 µM	O=C(OC12CC3CC(CC(C3)C1)C2)c1ccc(NCc2cc(O)ccc2O)cc1 [Compound 6, 4′-adamantylbenzoate-1′-N-2,5-dihydroxybenzylamine]	% T/C MDA-MB-231 IP ([2]; 33.50 mg/kg/dose IP): >100%; % T/C MDA-MB-231 IP ([2]; 50.00 mg/kg/dose IP): >100%; % T/C MDA-MB-231 SC ([2]; 33.50 mg/kg/dose IP): 67%; % T/C MDA-MB-231 SC ([2]; 50.00 mg/kg/dose IP): 92%; % T/C SF-295 IP ([3]; 33.50 mg/kg/dose IP): >100%; % T/C SF-295 IP ([3]; 50.00 mg/kg/dose IP): 88%; % T/C SF-295 SC ([3]; 33.50 mg/kg/dose IP): >100%; % T/C SF-295 SC ([3]; 50.00 mg/kg/dose IP): 88%
–	12.6 µM	O=C(OCC12CC3CC(CC(C3)C1)C2)c1ccc(NCc2cc(O)ccc2O)cc1 [Compound 7, 4′-4′-adamantylmethylbenzoate-1′-N-2,5-dihydroxybenzylamine]	–
